Reference: patent publication US20100160454A1, “ANTIMICROBIAL AGENTS, COMPOSITIONS AND PRODUCTS CONTAINING THE SAME, AND METHODS OF USING THE COMPOSITIONS AND PRODUCTS” (Eastman Chemical Company, priority 2008, published 2010)

Legend:
Assay in all cases: Microbiological challenge testing in BPW broth, graded subculture counts
Type in all cases: cell-based
Aeromonas sp. Wild type = system: Aeromonas sp. Wild type
Experimental: (§1) The microorganisms in the table below were used in challenge tests. They were either ATCC (American Type Culture Collection) or “wild type” as indicated. Wild type organisms were problematic organisms previously isolated from chemical products.
(§2) All of the microorganisms were grown in Tryptose Soy Broth (TSB), DIFCO™ available from Becton, Dickinson and Company, containing 1% dextrose. Candida albicans and Aspergillus niger, were incubated at 22° C.+/−2° C. for at least 96 hours. All bacteria were incubated at 35° C.+/−2° C. in a humidified incubator for at least 96 hours.
(§3) The following procedure was followed to determine the amount of each challenge material (inoculum broth) needed to produce a 10^8 CFU/mL challenge, which is equivalent to a final test-sample microbial concentration of 10^5 to 10^6 CFU/mL (CFU=colony forming units).
(§4) Using a sterile pipette, 1 mL of the growth from each TSB culture was transferred into tubes of 9 mL buffered water (pH 7.2 phosphate buffer) and mixed thoroughly. This was repeated to make serial 1:10 dilutions. Then, 0.1 mL of each sample and dilution was inoculated onto agar plates to produce the equivalent of a further 1:10 dilution. (C. albicans and A. niger were inoculated onto SABD and bacteria were inoculated onto Plate Count Agar (PCA), DIFCO™ available from Becton, Dickinson and Company.) (The normal volume plated for most samples was 0.1 mL. Some samples that could be very low in micro-organisms (high dilutions) were plated using 0.5 mL of inoculum, in order to produce reproducible counts.) The samples were distributed on the plates using the spread-plate technique. The spread-plate technique is carried out by spreading the sample over the entire plate surface using a sterile spreading rod while rotating the plate with a rotary auto-plater. After the inoculum was absorbed completely by the agar, each plate was inverted and incubated (fungi at 22° C.+/−2° C. and bacteria at 35° C.+/−2° C.).
(§5) After incubation for at least 48 hours, colonies that had developed on the agar plates were counted (CFU) and recorded with the corresponding dilution. If counting had to be delayed temporarily, plates were refrigerated, preferably no more than 24 hours, until they could be counted. The number of CFU/mL was determined by multiplying the plate count by the dilution factor of the plate counted.
(§6) Turbidity in Nepholemetric Turbidity Units (NTU) was measured for each serial dilution using the HF-Micro 100 Model Turbidimeter. For each microorganism, the plate counts were compared to the turbidity readings.
(§7) Control substrates (“broth alone”) were prepared for each microorganism separately in triplicate by adding 13.5 mL of Buffered Peptone Water broth (BPW) containing 1% dextrose to each 20-mL glass tube, then adding 1.5 mL challenge material to produce a final concentration at time zero of 10^5 to 10^6 CFU/mL and a total volume of 15 mL.
(§8) Test sample substrates were prepared containing each test material listed below at the concentrations shown for challenge testing with each microorganism separately. Sample substrates were prepared in triplicate, except the substrates containing butoxyethanol which were prepared in duplicate. Substrates were prepared by adding BPW containing 1% dextrose to each 20-mL glass tube, then adding the test material in the amount appropriate to achieve the desired weight/volume percent and to achieve a total volume of BPW plus dextrose plus test material of 13.5 mL. Then 1.5 mL challenge material was added to produce a final concentration at time zero of 10^5 to 10^6 CFU/mL and a total test sample substrate volume of 15 mL.

[1] = system: Bacillus subtilis Wild type
Experimental: as §1, §2, §3, §4, §5, §6, §7, §8

[2] = system: Proteus vulgaris Wild type
Experimental: as §1, §2, §3, §4, §5, §6, §7, §8

[3] = system: Streptococcus mutans ATCC 35668
Experimental: as §1, §2, §3, §4, §5, §6, §7, §8

OCC1CCC(CO)CC1 (stereo not drawn) [1,4-CHDM, 1,4-cyclohexanedimethanol]
Aeromonas sp growth grade, 3 day (Aeromonas sp. Wild type; 0.5% weight/volume): 5 (More than 10,000 colonies estimated (thus more than 100,000 CFU/mL)) | Aeromonas sp growth grade, 14 day (Aeromonas sp. Wild type; 0.5% weight/volume): 4 (1000 to 10,000 colonies countable (thus 10,000 CFU/mL to 100,000 CFU/mL)) | Aeromonas sp growth grade, 30 day (Aeromonas sp. Wild type; 0.5% weight/volume): 4 (1000 to 10,000 colonies countable (thus 10,000 CFU/mL to 100,000 CFU/mL)) | Aeromonas sp growth grade, 3 day (Aeromonas sp. Wild type; 1.25% weight/volume): 4 (1000 to 10,000 colonies countable (thus 10,000 CFU/mL to 100,000 CFU/mL)) | Aeromonas sp growth grade, 14 day (Aeromonas sp. Wild type; 1.25% weight/volume): 3 (100 to 1000 colonies (thus 1000 to 10,000 CFU/mL)) | Aeromonas sp growth grade, 30 day (Aeromonas sp. Wild type; 1.25% weight/volume): 2 (52 to 100 colonies counted (thus 520 to 1000 CFU/mL)) | Aeromonas sp growth grade, 3 day (Aeromonas sp. Wild type; 2.5% weight/volume): 3 (100 to 1000 colonies (thus 1000 to 10,000 CFU/mL)) | Aeromonas sp growth grade, 14 day (Aeromonas sp. Wild type; 2.5% weight/volume): 1 (0 to 51 colonies counted (thus 10 to 510 CFU/mL based on 0.1-mL sample)) | Aeromonas sp growth grade, 30 day (Aeromonas sp. Wild type; 2.5% weight/volume): 0 | Aeromonas sp growth grade, 3 day (Aeromonas sp. Wild type; 5.0% weight/volume): 0 | Aeromonas sp growth grade, 14 day (Aeromonas sp. Wild type; 5.0% weight/volume): 0 | Aeromonas sp growth grade, 30 day (Aeromonas sp. Wild type; 5.0% weight/volume): 0 | B. subtillis growth grade, 3 day ([1]; 0.5% weight/volume): 4 (1000 to 10,000 colonies countable (thus 10,000 CFU/mL to 100,000 CFU/mL)) | B. subtillis growth grade, 14 day ([1]; 0.5% weight/volume): 4 (1000 to 10,000 colonies countable (thus 10,000 CFU/mL to 100,000 CFU/mL)) | B. subtillis growth grade, 30 day ([1]; 0.5% weight/volume): 4 (1000 to 10,000 colonies countable (thus 10,000 CFU/mL to 100,000 CFU/mL)) | B. subtillis growth grade, 3 day ([1]; 1.25% weight/volume): 4 (1000 to 10,000 colonies countable (thus 10,000 CFU/mL to 100,000 CFU/mL)) | B. subtillis growth grade, 14 day ([1]; 1.25% weight/volume): 4 (1000 to 10,000 colonies countable (thus 10,000 CFU/mL to 100,000 CFU/mL)) | B. subtillis growth grade, 30 day ([1]; 1.25% weight/volume): 4 (1000 to 10,000 colonies countable (thus 10,000 CFU/mL to 100,000 CFU/mL)) | B. subtillis growth grade, 3 day ([1]; 2.5% weight/volume): 3 (100 to 1000 colonies (thus 1000 to 10,000 CFU/mL)) | B. subtillis growth grade, 14 day ([1]; 2.5% weight/volume): 2 (52 to 100 colonies counted (thus 520 to 1000 CFU/mL)) | B. subtillis growth grade, 30 day ([1]; 2.5% weight/volume): 1 (0 to 51 colonies counted (thus 10 to 510 CFU/mL based on 0.1-mL sample)) | B. subtillis growth grade, 3 day ([1]; 5.0% weight/volume): 1 (0 to 51 colonies counted (thus 10 to 510 CFU/mL based on 0.1-mL sample)) | B. subtillis growth grade, 14 day ([1]; 5.0% weight/volume): 0 | B. subtillis growth grade, 30 day ([1]; 5.0% weight/volume): 0 | P. vulgaris growth grade, 3 day ([2]; 0.5% weight/volume): 4 (1000 to 10,000 colonies countable (thus 10,000 CFU/mL to 100,000 CFU/mL)) | P. vulgaris growth grade, 13 day ([2]; 0.5% weight/volume): 4 (1000 to 10,000 colonies countable (thus 10,000 CFU/mL to 100,000 CFU/mL)) | P. vulgaris growth grade, 30 day ([2]; 0.5% weight/volume): 4 (1000 to 10,000 colonies countable (thus 10,000 CFU/mL to 100,000 CFU/mL)) | P. vulgaris growth grade, 3 day ([2]; 1.25% weight/volume): 3 (100 to 1000 colonies (thus 1000 to 10,000 CFU/mL)) | P. vulgaris growth grade, 13 day ([2]; 1.25% weight/volume): 2 (52 to 100 colonies counted (thus 520 to 1000 CFU/mL)) | P. vulgaris growth grade, 30 day ([2]; 1.25% weight/volume): 0 | P. vulgaris growth grade, 3 day ([2]; 2.5% weight/volume): 1 (0 to 51 colonies counted (thus 10 to 510 CFU/mL based on 0.1-mL sample)) | P. vulgaris growth grade, 13 day ([2]; 2.5% weight/volume): 0 | P. vulgaris growth grade, 30 day ([2]; 2.5% weight/volume): 0 | P. vulgaris growth grade, 3 day ([2]; 5.0% weight/volume): 0 | P. vulgaris growth grade, 13 day ([2]; 5.0% weight/volume): 0 | P. vulgaris growth grade, 30 day ([2]; 5.0% weight/volume): 0 | S. mutans growth grade, 3 day ([3]; 0.5% weight/volume): 4 (1000 to 10,000 colonies countable (thus 10,000 CFU/mL to 100,000 CFU/mL)) | S. mutans growth grade, 13 day ([3]; 0.5% weight/volume): 4 (1000 to 10,000 colonies countable (thus 10,000 CFU/mL to 100,000 CFU/mL)) | S. mutans growth grade, 30 day ([3]; 0.5% weight/volume): 4 (1000 to 10,000 colonies countable (thus 10,000 CFU/mL to 100,000 CFU/mL)) | S. mutans growth grade, 3 day ([3]; 1.25% weight/volume): 4 (1000 to 10,000 colonies countable (thus 10,000 CFU/mL to 100,000 CFU/mL)) | S. mutans growth grade, 13 day ([3]; 1.25% weight/volume): 2 (52 to 100 colonies counted (thus 520 to 1000 CFU/mL)) | S. mutans growth grade, 30 day ([3]; 1.25% weight/volume): 2 (52 to 100 colonies counted (thus 520 to 1000 CFU/mL))
